From patent publication US8841425B2, “Cytotoxic agents comprising new maytansinoids” (ImmunoGen, Inc., priority 2003, dated 2014)

Key:
[1] = tested on: human Ramos tumor xenografts; assay: In vivo efficacy of huB4-DM4 against Ramos xenografts in SCID mice; parameters: species or system mouse
Method: The efficacy of huB-DM4 in vivo was determined using SCID mice bearing established human Ramos tumor xenografts. Ramos cells were injected subcutaneously and tumors were allowed to grow to an average size of 100 mm^3. Dosage is expressed as μg DM4 in the conjugate, which corresponds to an antibody dose of approximately 44 μg antibody per μg of DM4. Tumor volume was measured as an indication of treatment efficacy and mouse body weight was monitored to indicate toxicity due to treatment. […] Animals remain without measurable disease for about 35 days in the […] treatment group, and for more than 55 days in the two highest dose groups.

[2] = tested on: CD19-positive Ramos human tumor cells; assay: MTT-based cytotoxicity of huB4-DM4, Ramos cells; type: cell-based; details: MTT-based assay, FIG. 12
Method: (§1) The cytotoxicity of huB4-DM4 toward CD19-expressing cells (Ramos) compared to a CD19-negative cell line (Colo 205) was tested using an MTT-based assay, where cell killing activity is determined by quantifying the number of viable cells that remain following treatment with conjugate. Viable cell number is determined by spectrophotometric quantitation following incubation of the cells with the vital dye MTT.

[3] = tested on: CD19-negative cell line (Colo 205); assay: MTT-based cytotoxicity of huB4-DM4, Colo 205 cells; type: cell-based, human; details: MTT-based assay, non-target Colo 205 cells, FIG. 12
Method: as §1

CD19 = molecular target: T1, CD19 (Homo sapiens, UniProt P15391); assay: Binding affinity of huB4 conjugate by flow cytometry; details: after conjugation
T1 sequence (P15391 20-556): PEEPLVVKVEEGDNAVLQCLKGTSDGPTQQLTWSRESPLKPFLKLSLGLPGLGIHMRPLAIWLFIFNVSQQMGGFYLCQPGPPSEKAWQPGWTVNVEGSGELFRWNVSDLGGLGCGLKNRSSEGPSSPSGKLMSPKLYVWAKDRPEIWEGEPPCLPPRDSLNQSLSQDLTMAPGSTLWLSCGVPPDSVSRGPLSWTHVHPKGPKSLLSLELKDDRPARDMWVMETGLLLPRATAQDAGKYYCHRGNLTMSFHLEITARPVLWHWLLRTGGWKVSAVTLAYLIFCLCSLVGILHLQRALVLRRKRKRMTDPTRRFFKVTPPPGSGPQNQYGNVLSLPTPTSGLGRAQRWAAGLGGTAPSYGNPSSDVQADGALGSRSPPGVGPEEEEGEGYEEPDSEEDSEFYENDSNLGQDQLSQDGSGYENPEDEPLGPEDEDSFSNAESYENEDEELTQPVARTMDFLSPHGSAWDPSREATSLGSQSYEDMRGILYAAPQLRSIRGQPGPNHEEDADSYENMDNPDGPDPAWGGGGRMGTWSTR
Method: A solution of huB4 antibody at a concentration of 20 mg/mL was incubated for 1.5 h with an 8-fold molar excess of SSNPB [sulfosuccinimidyl 4-(5′-nitro-2′-pyridyldithio)butyrate] in 50 mM potassium phosphate buffer, pH 6.5 containing 2 mM ethylenediaminetetraacetic acid (buffer A) with 5% dimethylacetamide. The modified antibody was purified by passage through a Sephadex G25 gel filtration column equilibrated in buffer A and the concentration of the purified antibody was determined spectrophotometrically using the extinction coefficient for the antibody at 280 nm (199,560 M^−1 cm^−1). The modified antibody was diluted to 8 mg/mL with buffer A and incubated for 3 h at ambient temperature with a 1.7-fold molar excess of DM4, which was added to the reaction mixture as a stock solution in dimethylacetamide (final concentration of dimethylacetamide was 3% v/v). […] The concentration of conjugate was determined spectrophotometrically using the know extinction coefficients for antibody (ε280 nm: 199,560 M^−1 cm^−1; ε252 nm: 67,850 M^−1 cm^−1) and DM4 (ε280 nm=5,700 M^−1 cm^−1, ε252 […]=26,790 M^−1 cm^−1). […] The amount of drug associated with the antibody that was not linked covalently (free drug) was determined by HPLC analysis and was approximately 2% of the total linked drug.

huB4-DM4: huB4 (anti-CD19) antibody modified with SSNPB and linked to DM4, average of 4.0 DM4 molecules per antibody molecule
toxicity as judged by changes in body weight ([1]; SCID mice, single i.v. injection, FIG. 13b): very little if any toxicity | tumor response ([1]; SCID mice, single i.v. injection, doses above 50 μg/kg): complete regression of the tumors in all animals | time without measurable disease ([1]; single i.v. injection, 100 mg/kg treatment group): about 35 days | time without measurable disease ([1]; single i.v. injection, two highest dose groups): more than 55 days | anti-tumor activity ([1]; subcutaneous Ramos tumor model, FIG. 13a): high anti-tumor activity in a dose-dependent manner | tumor response ([1]; subcutaneous Ramos tumor model, doses that are non-toxic, FIG. 13a,b): Complete tumor regressions and cures | cell killing activity toward Ramos cells [2]: potent cell killing activity | toxicity toward CD19-negative cells [3]: No significant toxicity | binding affinity compared with unmodified antibody (CD19): comparable to the unmodified antibody
